Test results reported in patent publication US5153173A, “N-acyl derivatives of the peptidoglycan monomer, pharmaceutically acceptable salts thereof, their preparation and use as immunomodulators and immunoadjuvants” (Pliva Farmaceutska, priority 1990, dated 1992).
“And” between values parts separate entries of the source, which are not always exact repeats. Equal values may be shown once.

Legend:
[1] = Spleen weight of CBA mice after a single i.v. dose; type: in vivo, CBA male mice; conditions: for Spleen weight, % (control = 100) / Spleen weight: CBA male mice, single i.v. dose 200 μg/mouse (10 mg/kg); for Spleen weight, % (control = 100): relative to control of the same experiment; for Spleen weight: value ± spread; for change in the spleen weight: differences to control not significant, tendency of improved activity; for increase in the spleen weight in comparison to the control values: statistically significant, CBA mice, i.v. 200 μg/mouse
Experimental: (§1) The biological activity of the claimed compounds was tested on CBA male mice, 2-2.5 months old. The animals had been adapting to the laboratory conditions at least one week prior to each testing. The effectiveness of the N-acyl derivative of PGM was compared with the results achieved in control mice goups which were administered a physiological solution (negative control) and the original PGM (positive control). All tested substances were administered to the organism by intravenous (i.v.) route in a single dose of 200 μg/mouse and 10 mg/kg resp. The following effects of the immunopharmacological activity were surveyed: spleen weight, number of lymphocytes and number of PFC (plaque forming cells) according to the method of Jerne (in: Cell Bound Antibodies, Whister Institute Press, Philadelphia (1963), p.109). The spleen weight is expressed in mg. The number of the spleen lymphocytes is expressed as the absolute number in 1 ml, whereas the PFC are expressed by way of their total number and by their activity 10^6 spleen lymphocytes. The test groups and the corresponding control groups resp. comprised each 5-7 mice. The activity of each N-acyl derivative of PGM was examined at least three times in various periods. The statistical analysis was performed with the parametric Student t-test, applying the original computer programme Stat Works. The significance of the differences was assessed by two-tailed test at the level of acceptance equal or less than 5%. The summarized results of the effects of individual N-acyl derivatives on the parameters of immune response are listed in Table 1.

[2] = Z. Immun.-Forsch. 155 (1979), 312-328; cited from earlier work
[3] = cited from earlier work
[4] = test system: PFC (plaque forming cells); experiment: Number of PFC (plaque forming cells), method of Jerne, in CBA mice; type: in vivo, CBA male mice; conditions: for Abs. PFC, % (control = 100) / PFC/l mil, % (control = 100) / PFC/l mil / Abs. PFC: CBA male mice, single i.v. dose 200 μg/mouse; for Abs. PFC, % (control = 100) / PFC/l mil, % (control = 100): relative to control of the same experiment; for PFC/l mil: PFC per 10^6 spleen lymphocytes; for PFC/l mil / Abs. PFC: value ± spread; for PFC activity with respect to the number of the spleen lymphocytes, significance / increase of PFC / overall PFC activity, significance (words): Student t-test versus control; for Abs. PFC: total number of PFC
Experimental: as §1

[5] = Eur. J. Cancer Oncol. 19 (1983); Cancer Immunol. Immunother. 15 (1983), 18 (1984); cited from earlier work
spleen lymphocytes = experiment: Number of spleen lymphocytes of CBA mice after a single i.v. dose; type: in vivo, CBA male mice; design: No spleen cells: unit not given beside the values; conditions: for No spleen cells, % (control = 100) / No spleen cells: CBA male mice, single i.v. dose 200 μg/mouse; for No spleen cells, % (control = 100): relative to control of the same experiment; for reduction of the number of spleen lymphocytes in comparison to the control values / increase of the number of the spleen lymphocytes: absolute number in 1 mL; for reduction of the number of spleen lymphocytes in comparison to the control values / effect upon the number of spleen lymphocytes / increase of the number of the spleen lymphocytes: CBA mice, i.v. 200 μg/mouse; for No spleen cells: absolute number of spleen lymphocytes in 1 ml, value ± spread
Experimental: as §1

immune response = experiment: Overall immunopharmacological activity (cellular and humoral immunity) in CBA mice; type: in vivo, CBA male mice; conditions: for involvement in the humoral immunity / effect on the cellular immune response: conclusion from Table 1
Experimental: as §1

Compound: CC(=O)NC1C(OC2C(CO)OC(O)C(NC(C)=O)C2OC(C)C(=O)NC(C)C(=O)NC(CCC(=O)NC(CCCC(N)C(=O)O)C(=O)NC(C)C(=O)NC(C)C(=O)O)C(N)=O)OC(CO)C(O)C1O (centres unmarked) [PGM, peptidoglycan monomer]
- Spleen weight, % (control = 100) ([1]; 10 mg/kg): 115% and 107% and 104% and 103% and 106% and 102%
- immunomodulating activity [2]: immunomodulating
- solubility in organic solvents ([3]; organic solvents): insoluble
- solubility in water ([3]; water): well water-soluble
- Abs. PFC, % (control = 100) [4]: 159% and 139% and 119% and 102% and 100% and 105% and 112% and 135%
- PFC/l mil, % (control = 100) [4]: 128% and 116% and 111% and 96% and 102% and 118% and 150%
- PFC/l mil [4]: 156.1 ± 102.78 and 190.4 ± 79.53 and 117.1 ± 48.37 and 214.4 ± 95.61 and 163.6 ± 72.39 and 141.4 ± 40.57 and 219.1 ± 96.98 and 206.9
- antimetastatic activity [5]: antimetastatic activity
- No spleen cells, % (control = 100) (spleen lymphocytes): 122% and 87% and 113% and 94% and 93% and 102% and 90%

Compound: NA-salt of N-acetyl-PGM [Acetyl PGM]
- Spleen weight, % (control = 100) [1]: 106%
- Spleen weight [1]: 112.3 ± 12.08 mg
- Abs. PFC, % (control = 100) [4]: 111%
- PFC/l mil, % (control = 100) [4]: 119%
- PFC/l mil [4]: 202.7 ± 91.97
- PFC activity with respect to the number of the spleen lymphocytes, significance [4]: clearly expressed enhancing tendency
- Abs. PFC [4]: 85.8 ± 33.17
- No spleen cells, % (control = 100) (spleen lymphocytes): 96%
- reduction of the number of spleen lymphocytes in comparison to the control values (spleen lymphocytes): 4-6%
- No spleen cells (spleen lymphocytes): 41.9 ± 5.66

Compound: Na-salt of N-benzoyl-PGM [Benzoyl PGM]
- Spleen weight, % (control = 100) [1]: 114%
- Spleen weight [1]: 113.4 ± 22.28 mg
- change in the spleen weight [1]: relative increase
- Abs. PFC, % (control = 100) [4]: 138%
- PFC/l mil, % (control = 100) [4]: 142%
- PFC/l mil [4]: 282.1
- PFC activity with respect to the number of the spleen lymphocytes, significance [4]: clearly expressed enhancing tendency
- increase of PFC / overall PFC activity, significance (words) ([4]; listed as N-benzoyl): statistically significant difference
- increase of PFC / overall PFC activity, significance (words) ([4]; listed as benzoyl): significant effect
- Abs. PFC [4]: 95.7 ± 28.45
- No spleen cells, % (control = 100) (spleen lymphocytes): 100%
- effect upon the number of spleen lymphocytes (spleen lymphocytes): no effect
- No spleen cells (spleen lymphocytes): 34.1 ± 9.56
- involvement in the humoral immunity (immune response): more significantly involved

Compound: Na-salt of N-capriloyl-PGM [Capriloyl PGM]
- Spleen weight, % (control = 100) [1]: 100%
- Spleen weight [1]: 120.4 ± 12.36 mg
- Abs. PFC, % (control = 100) [4]: 159%
- PFC/l mil, % (control = 100) [4]: 126%
- PFC/l mil [4]: 154.2 ± 111.12
- Abs. PFC [4]: 88.5 ± 75.95
- No spleen cells, % (control = 100) (spleen lymphocytes): 119%
- increase of the number of the spleen lymphocytes (spleen lymphocytes): 19%
- No spleen cells (spleen lymphocytes): 46.1 ± 11.70
- effect on the cellular immune response (immune response): significant effect

Compound: Na-salt of N-lauroyl-PGM [Lauroyl PGM]
- Spleen weight, % (control = 100) [1]: 112%
- Spleen weight [1]: 135.5 ± 22.60 mg
- change in the spleen weight [1]: relative increase
- Abs. PFC, % (control = 100) [4]: 162%
- PFC/l mil, % (control = 100) [4]: 155%
- PFC/l mil [4]: 254.2
- PFC activity with respect to the number of the spleen lymphocytes, significance [4]: statistically significant difference
- increase of PFC / overall PFC activity, significance (words) ([4]; listed as N-lauroyl): statistically significant difference
- increase of PFC / overall PFC activity, significance (words) ([4]; listed as lauroyl): significant effect
- Abs. PFC [4]: 125.4 ± 68.45
- No spleen cells, % (control = 100) (spleen lymphocytes): 79%
- reduction of the number of spleen lymphocytes in comparison to the control values (spleen lymphocytes): 20%
- No spleen cells (spleen lymphocytes): 45.2 ± 8.50
- activity in comparison with the original PGM (immune response; administered in the same concentration): superior activity
- effect on the cellular immune response (immune response): significant effect
- involvement in the humoral immunity (immune response): more significantly involved

Compound: Na-salt of N-pivaloyl-PGM [Pivaloyl PGM]
- Spleen weight, % (control = 100) [1]: 107%
- Spleen weight [1]: 125.5 ± 19.44 mg
- change in the spleen weight [1]: relative increase
- Abs. PFC, % (control = 100) [4]: 110%
- PFC/l mil, % (control = 100) [4]: 118%
- PFC/l mil [4]: 163.8 ± 52.95
- Abs. PFC [4]: 76.4 ± 24.94
- No spleen cells, % (control = 100) (spleen lymphocytes): 94%
- reduction of the number of spleen lymphocytes in comparison to the control values (spleen lymphocytes): 4-6%
- No spleen cells (spleen lymphocytes): 42.9 ± 9.82

Compound: sodium salt of N-oleoyl-PGM [Oleoyl PGM]
- Spleen weight, % (control = 100) [1]: 121%
- Spleen weight [1]: 131.7 ± 14.40 mg
- increase in the spleen weight in comparison to the control values [1]: 21%
- Abs. PFC, % (control = 100) [4]: 113%
- PFC/l mil, % (control = 100) [4]: 109%
- PFC/l mil [4]: 210.8 ± 88.40
- Abs. PFC [4]: 97.1 ± 41.86
- No spleen cells, % (control = 100) (spleen lymphocytes): 103%
- increase of the number of the spleen lymphocytes (spleen lymphocytes): 3-9%
- No spleen cells (spleen lymphocytes): 42.3 ± 7.96

Compound: sodium salt of N-stearoyl-PGM [Stearoyl PGM]
- Spleen weight, % (control = 100) [1]: 113%
- Spleen weight [1]: 123.6 ± 18.63 mg
- increase in the spleen weight in comparison to the control values [1]: 13%
- Abs. PFC, % (control = 100) [4]: 126%
- PFC/l mil, % (control = 100) [4]: 118%
- PFC/l mil [4]: 219.2 ± 67.11
- Abs. PFC [4]: 93.4 ± 37.55
- No spleen cells, % (control = 100) (spleen lymphocytes): 100%
- effect upon the number of spleen lymphocytes (spleen lymphocytes): no effect
- No spleen cells (spleen lymphocytes): 37.8 ± 6.90
